Values quoted from earlier work as cited in patent publication US9180191B2, “Treatment of suicidal ideation or behavior using inhibitors of nicotinic acetylcholine receptors” (UNIVERSITY OF SOUTH FLORIDA, priority 2009, dated 2015).
Read-outs that look alike come from different tables or passages of the source. One block for each compound: values may come before it.

Legend:
[1] = for teratogen class: FDA Approved Labeling Text
[2] = major depressive disorder, inadequate response to prior antidepressant, two 6 week studies
[3] = for risk of neuroleptic malignant syndrome: patients receiving the drug
[4] = test system: muscarinic cholinergic receptors
[5] = not given; remark: listed apart in the source
[6] = test system: serotonergic, dopaminergic, and a-adrenergic receptors
[7] = test system: physiological response to nicotine; conditions: chronic administration, rodents
[8] = not given; remark: listed apart in the source
[9] = test system: brain-derived neurotrophic factor (BDNF); conditions: in vivo
[10] = for reducing suicidal ideation versus placebo: week 8 (endpoint), p<0.001
[11] = schizophrenic patients with persistent ongoing symptoms
[12] = bipolar I or II disorder, acute bipolar depression
[13] = treatment resistant psychotic bipolar patients, 24 months of observation
[14] = not given; remark: listed apart in the source
[15] = smoking cessation
[16] = bipolar I, manic and mixed symptoms
[17] = clinical trials in schizophrenia

SMILES: O=C1CCc2ccc(OCCCCN3CCN(c4cccc(Cl)c4Cl)CC3)cc2N1 [aripiprazole]
efficacy versus placebo in acute use (bipolar I, manic and mixed symptoms, 3 week trials): rapid and significant advantage compared to placebo | efficacy versus placebo as adjunctive therapy (with lithium or valproate) (bipolar I, manic or mixed state, inadequate improvement on mood stabilizer monotherapy): superior to placebo | profile and tolerability with long-term use (long-term use up to 6 months): favorable profile and tolerability | teratogen class [1]: Class-C teratogen | efficacy versus placebo as adjunctive therapy with antidepressants [2]: superior to placebo | most commonly observed side effects ([3]; clinical trials in mood disorders (bipolar I disorder and major depressive disorder)): akathisia, sedation, restlessness, tremor, insomnia, constipation, fatigue, blurred vision and extrapyramidal disorder | risk of neuroleptic malignant syndrome [3]: extremely rare

SMILES: O=C([O-])[O-].[Li+].[Li+] [lithium, Lithium carbonate]
use in pregnancy ([1]; pregnancy): associated with neural tube defects | physiological response to nicotine [7]: decreases their physiological response to nicotine | fatality rate due to suicide after discontinuing lithium compared to the rate during lithium maintenance ([8]; after discontinuing lithium): 12.6 times higher | incidence of attempted and completed suicide compared to those who did not receive lithium ([8]; long-term lithium treatment): 13 fold lower | effect on suicidality ([8]; recurrent unipolar major depressive disorder and bipolar disorder): consistently reduces suicidality | most commonly observed side effects ([3]; lithium, population not given): tremor, diarrhea, polydipsia, polyuria and nausea | effect on brain BDNF levels [9]: increase brain BDNF levels

SMILES: c1cnc2cc3c(cc2n1)[C@@H]1CNC[C@H]3C1 [varenicline]
risk of suicidality relative to other treatments (i.e., buproprion, Zyban) [15]: increase in the risk of suicidality

More lines, main results first:

affinity for muscarinic cholinergic receptors [4]: no appreciable affinity | risk of neuroleptic malignant syndrome [3]: extremely rare | affinity for serotonergic, dopaminergic, and a-adrenergic receptors [6]: high affinity
SMILES: CN1CC2c3ccccc3Oc3ccc(Cl)cc3C2C1 (stereo not shown) [asenapine]
teratogen class [1]: Class-C teratogen | efficacy versus olanzapine in extended use [5, 16]: efficacy comparable to olanzapine | efficacy versus placebo in acute use [5, 16]: rapid and significant advantage compared to placebo | efficacy versus placebo as adjunctive therapy ([5]; bipolar patients with inadequate improvement on mood stabilizer monotherapy): superior to placebo | profile and tolerability with long-term use ([5]; long-term use): favorable profile and tolerability | most commonly observed side effects [3, 17]: anxiety, somnolence, EPS, dizziness, constipation, nausea, dyspepsia, rhinitis, rash, and tachycardia

risk of neuroleptic malignant syndrome [3]: extremely rare
SMILES: OCCOCCN1CCN(C2=Nc3ccccc3Sc3ccccc32)CC1 [quetiapine]
teratogen class [1]: Class-C teratogen | reducing suicidal ideation versus placebo ([10]; 300 mg/day): more effective than placebo | reducing suicidal ideation versus placebo ([10]; 600 mg/day): more effective than placebo | mean percent reduction in suicidal thoughts ([10]; 542 outpatients, bipolar I and II depression, placebo approximately 30%): approximately 60% | reduction in suicidal ideation relative to placebo, item 10 on the MADRS ([10]; bipolar I and II depression): approximately twice | depressive symptoms versus haloperidol [11]: reduce depressive symptoms more than haloperidol | reducing depressive and anxiety symptoms versus placebo [12]: superior to placebo | suicidality [13]: effective in lowering suicidality | most commonly observed side effects [3, 17]: anxiety, somnolence, EPS, dizziness, constipation, nausea, dyspepsia, rhinitis, rash, and tachycardia | efficacy versus placebo in combination with divalproex ([14]; adolescent patients with acute bipolar I mania): superior to placebo | efficacy versus placebo in combination with lithium or divalproex ([14]; hospitalized adult patients with acute mania): superior to placebo | efficacy versus placebo as monotherapy in acute bipolar mania ([14]; hospitalized patients with bipolar I disorder, two 12-week trials): superior to placebo
